Laboratory results taken from PMC9320114 (Molecules, 2022).
Like-named read-outs stand apart in the source and are kept apart here.

Assays:
hMAO-B = molecular target: T1, hMAO-B (Homo sapiens, UniProt P27338); assay: biochemical; conditions: for IC50: IC50 ± SEM
T1 construct: purchased Sigma Aldrich; host or cells: BTI-TN-5B1-4 baculovirus-infected insect cells
T1 sequence (P27338 1-520): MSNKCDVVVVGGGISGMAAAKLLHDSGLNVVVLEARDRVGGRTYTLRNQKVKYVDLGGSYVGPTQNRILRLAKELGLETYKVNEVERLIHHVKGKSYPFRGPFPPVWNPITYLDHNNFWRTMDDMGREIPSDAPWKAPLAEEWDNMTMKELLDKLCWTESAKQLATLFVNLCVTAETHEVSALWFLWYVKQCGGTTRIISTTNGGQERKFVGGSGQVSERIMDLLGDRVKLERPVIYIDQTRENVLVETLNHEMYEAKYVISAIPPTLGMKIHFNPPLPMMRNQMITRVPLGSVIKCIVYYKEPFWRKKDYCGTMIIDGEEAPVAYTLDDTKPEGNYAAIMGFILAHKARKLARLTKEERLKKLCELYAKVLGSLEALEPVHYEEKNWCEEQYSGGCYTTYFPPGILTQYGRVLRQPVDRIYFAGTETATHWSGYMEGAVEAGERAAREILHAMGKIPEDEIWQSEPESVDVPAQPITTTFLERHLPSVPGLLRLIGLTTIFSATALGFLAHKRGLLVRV
Excerpt: The effects of the compounds on hMAO-A and hMAO-B were investigated using a fluorimetric assay, following a method previously described in the literature. Recombinant human microsomal hMAO enzymes expressed in BTI-TN-5B1-4 baculovirus-infected insect cells, horseradish peroxidase (HRP, type II, lyophilized powder), and p-tyramine hydrochloride were purchased from Sigma Aldrich. 10-Acetyl-3,7-dihydroxyphenoxazine (Amplex Red reagent) was synthesized as described in the literature.
After preincubation, the reaction was started by adding final concentrations of 200 µM Amplex Red reagent, 2 U/mL HRP, and 1 mM p-tyramine hydrochloride. Resorufin production was quantified based on the fluorescence produced (λex = 530 nm; λem = 590 nm) at 37 °C over a 20 min period. For the control experiments, DMSO was used instead of appropriate dilutions of the compounds in DMSO. For the determination of blank (b), the enzyme solution was replaced by a phosphate-buffered solution. Initial velocities were calculated from the obtained trend, with each measurement performed in duplicate. Specific fluorescence emission to determine the final results was calculated after subtracting the blank activity (b). Inhibitory potencies were expressed as RAs, and IC50 values were calculated as described in the section “Inhibition of hBChE and mAChE” above.

[1] = molecular target: T2, murine acetylcholinesterase (mAChE) (Mus musculus, UniProt P21836); assay: biochemical; format: biochemical; conditions: for mAChE RA (%) / remaining activity at 10 µM / RA (mAChE, 10 µM): residual activity at 10 µM; for remaining activity at 10 µM: read-out: mAChE RA (%); for RA (mAChE, 10 µM): Figure 1
T2 sequence (P21836 32-614): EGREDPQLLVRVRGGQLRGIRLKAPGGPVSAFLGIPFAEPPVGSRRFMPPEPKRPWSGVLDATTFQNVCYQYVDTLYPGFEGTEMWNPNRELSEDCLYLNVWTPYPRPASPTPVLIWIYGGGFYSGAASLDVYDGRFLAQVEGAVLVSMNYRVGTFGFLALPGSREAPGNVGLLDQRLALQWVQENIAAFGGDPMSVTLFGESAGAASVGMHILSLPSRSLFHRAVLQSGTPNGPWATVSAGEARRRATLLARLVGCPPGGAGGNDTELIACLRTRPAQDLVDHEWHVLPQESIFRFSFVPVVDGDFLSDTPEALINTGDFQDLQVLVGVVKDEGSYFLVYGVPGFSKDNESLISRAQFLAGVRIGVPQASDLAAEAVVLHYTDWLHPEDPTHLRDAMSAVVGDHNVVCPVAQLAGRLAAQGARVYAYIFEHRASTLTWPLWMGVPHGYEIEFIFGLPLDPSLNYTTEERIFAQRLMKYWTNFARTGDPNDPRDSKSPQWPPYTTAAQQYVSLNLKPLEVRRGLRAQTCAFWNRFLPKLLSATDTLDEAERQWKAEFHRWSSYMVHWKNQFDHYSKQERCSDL
Experimental: Enzyme solutions were prepared by diluting the concentrated enzyme stock solutions (4.6 mg/mL in 10 mM MES-NaOH buffer, pH 6.5) in a sodium phosphate-buffered solution (0.1 M, pH 8.0). […] The final organic solvent (DMSO) content was always 1% (v/v). Reactions were initiated by adding the substrate to the enzyme and inhibitor, which were preincubated for 5 min. […] To determine the blank value (b), the enzyme solution was replaced by a phosphate-buffered solution. The initial velocity (v) was calculated from the slope of the linear trend obtained, with each measurement performed in triplicate. The inhibitory potencies were expressed as RA=(vi − b)/(vo − b), where vi is the velocity in the presence of the test compounds and vo is the control velocity in the presence of DMSO. Seven different concentrations of each compound were used for the IC50 measurements. IC50 values were obtained by plotting the residual enzyme activities against the applied inhibitor concentrations, fitting the experimental data to the 4-parameter Hill equation:(1) Y=Bottom+(Top−Bottom)/1+10^((LogIC50−X)×Hill Slope) where X is the logarithm of the inhibitor concentration, and Y is the residual activity. GraphPad Prism 8.2.0 (GraphPad Software, San Diego, CA, USA) was used for the fitting procedure.

[2] = residual activity at 10 µM, Mini Library screen, Table S1, read-out: hMAO-B (RA [%])
[3] = residual activity at 10 µM, Table 3, read-out: hMAO-B RA (%)

| Compound | remaining activity at 10 µM (hMAO-B; [2]) | mAChE RA (%) ([1]; Mini Library screen, Table S1) | remaining activity at 10 µM ([1]; Table 4) | IC50 ([1]; Mini Library screen, Table S1) | IC50 ([1]; Table 1, IC50 ± SEM) | RA (mAChE, 10 µM) [1] | remaining activity at 10 µM ([1]; Table 1) | IC50 (hMAO-B; Table 3) | remaining activity at 10 µM (hMAO-B; [3]) | hMAO-B RA [%] (hMAO-B; residual activity at 10 µM, Table S3) |
| --- | --- | --- | --- | --- | --- | --- | --- | --- | --- | --- |
| CCCCc1nc2ccn(Cc3ccccc3)c(=O)c2n1Cc1ccc(-c2ccccc2-c2nnn[nH]2)cc1 [MS-ML03] | 97% | 92% | – | – | – | – | – | – | – | – |
| CCCCc1nc2ccn(CC(=O)N3CCCCC3)c(=O)c2n1Cc1ccc(-c2ccccc2S(=O)(=O)NC(=O)OCc2ccccc2)cc1F [MS-ML05] | 93% | 96% | – | – | – | – | – | – | – | – |
| C1=C(c2ccccc2)CCN(CCCCc2c[nH]c3ccccc23)C1 [MS-ML10] | 82% | 64% | 64% | – | – | – | – | – | – | – |
| Oc1ccc2[nH]cc(CCCCN3CC=C(c4ccccc4)CC3)c2c1 [MS-ML11] | 45% | 82% | 82% | – | – | – | – | – | – | – |
| CCCCCCN(Cc1ccc(C#Cc2ccc(CCCC)cc2)cc1)c1ccc(O)c(C(=O)O)c1 [MS-ML24] | 64% | – | – | 414 ± 40 nM | 294 ± 25 nM | 1% | 1% | – | – | – |
| CCCCCCN(Cc1ccc(C#Cc2ccc(CCCC)cc2)cc1)C(=O)c1ccc(O)c(C(=O)O)c1 [MS-ML25] | 77% | – | – | 369 ± 55 nM | 485 ± 79 nM | 3% | 3% | – | – | – |
| CCCCCCN(Cc1ccc(C#Cc2ccc(CCCC)cc2)cc1)c1ccc(F)c(C(=O)O)c1 [MS-ML26] | 92% | – | – | 359 ± 39 nM | 275 ± 60 nM | 8% | 8% | – | – | – |
| O=C(OC[C@H]1CCCN1c1ccnc2ncnn12)c1ccc(Oc2ccccc2)nc1 [MS-ML31] | 13% | 89% | – | – | – | – | – | 912 ± 122 nM | 17% | 17% |
| O=C(Nc1ccc(Oc2ccncc2)cc1)Nc1cc(C(F)(F)F)ccc1-n1cncn1 [MS-ML80] | 11% | 95% | – | – | – | – | – | 405 ± 76 nM | 10% | – |
